Test results taken from PubChem BioAssay (NCI).
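Grown in 96-well plates, cells were treated for 48 hours with each compound at five concentrations. Insufficient inhibition: endpoint recorded as highest concentration tested. GI50 = concentration required for 50% inhibition of growth. TGI: total growth inhibition.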

Key:
Assay in all cases: growth of human tumour cells (NCI), 48 h; in the data active means GI50 below about 0.43 µM; inactive means the rest
A549 NSCLC = test system: A549 NSCLC
MDA-MB-435 = test system: MDA-MB-435
UACC-257 melanoma = test system: UACC-257 melanoma
MDA-MB-231 breast = test system: MDA-MB-231 breast
T-47D breast = test system: T-47D breast
SW-620 colon = test system: SW-620 colon
A498 renal = test system: A498 renal
UO-31 renal = test system: UO-31 renal
COLO 205 colon = test system: COLO 205 colon
SN12C renal = test system: SN12C renal
RPMI-8226 leukemia = test system: RPMI-8226 leukemia
OVCAR-8 ovarian = test system: OVCAR-8 ovarian
NCI/ADR-RES ovarian = test system: NCI/ADR-RES ovarian
SK-MEL-2 melanoma = test system: SK-MEL-2 melanoma
UACC-62 melanoma = test system: UACC-62 melanoma
DU-145 prostate = test system: DU-145 prostate
MOLT-4 leukemia = test system: MOLT-4 leukemia
ACHN renal = test system: ACHN renal
RXF 393 renal = test system: RXF 393 renal
SK-OV-3 ovarian = test system: SK-OV-3 ovarian
MCF7 breast = test system: MCF7 breast
NCI-H23 lung = test system: NCI-H23 lung
SNB-19 CNS = test system: SNB-19 CNS
HCT-116 colon = test system: HCT-116 colon
OVCAR-3 ovarian = test system: OVCAR-3 ovarian
HS 578T breast = test system: HS 578T breast
SR leukemia = test system: SR leukemia
LOX IMVI melanoma = test system: LOX IMVI melanoma
HT29 colon = test system: HT29 colon
M14 melanoma = test system: M14 melanoma
K-562 leukemia = test system: K-562 leukemia
CAKI-1 renal = test system: CAKI-1 renal
U251 CNS = test system: U251 CNS
OVCAR-5 ovarian = test system: OVCAR-5 ovarian
SF-539 CNS = test system: SF-539 CNS
BT-549 breast = test system: BT-549 breast
HCT-15 colon = test system: HCT-15 colon
EKVX NSCLC = test system: EKVX NSCLC
SK-MEL-5 melanoma = test system: SK-MEL-5 melanoma
786-0 renal = test system: 786-0 renal
PC-3 prostate = test system: PC-3 prostate
CCRF-CEM leukemia = test system: CCRF-CEM leukemia
HOP-62 NSCLC = test system: HOP-62 NSCLC
SF-295 CNS = test system: SF-295 CNS
NCI-H460 lung = test system: NCI-H460 lung
IGROV1 ovarian = test system: IGROV1 ovarian
MDA-N = test system: MDA-N
HL-60(TB) leukemia = test system: HL-60(TB) leukemia
SF-268 CNS = test system: SF-268 CNS
KM12 colon = test system: KM12 colon
MALME-3M melanoma = test system: MALME-3M melanoma
OVCAR-4 ovarian = test system: OVCAR-4 ovarian
NCI-H226 lung = test system: NCI-H226 lung
SK-MEL-28 melanoma = test system: SK-MEL-28 melanoma
HCC-2998 colon = test system: HCC-2998 colon
SNB-75 CNS = test system: SNB-75 CNS
NCI-H522 lung = test system: NCI-H522 lung
TK-10 renal = test system: TK-10 renal

C[C@H]1[C@H](C)CC[C@]2(C)CC[C@]3(C)C(=C[C@@H](O)[C@@H]4[C@@]5(C)[C@H](O)[C@@H](O)[C@H](O)C(C)(C)[C@@H]5CC[C@]43C)[C@H]12
inactive: GI50 (T-47D breast) 18.7 µM
active: GI50 (RXF 393 renal) 0.361 µM | GI50 (EKVX NSCLC) 0.0221 µM
> 100 µM: TGI (A549 NSCLC) | TGI (MDA-MB-435) | TGI (UACC-257 melanoma) | TGI (MDA-MB-231 breast) | TGI (T-47D breast) | TGI (SW-620 colon) | TGI (A498 renal) | TGI (UO-31 renal) | TGI (COLO 205 colon) | TGI (SN12C renal) | TGI (RPMI-8226 leukemia) | TGI (OVCAR-8 ovarian) | TGI (NCI/ADR-RES ovarian) | TGI (SK-MEL-2 melanoma) | TGI (UACC-62 melanoma) | TGI (DU-145 prostate) | TGI (MOLT-4 leukemia) | TGI (ACHN renal) | TGI (RXF 393 renal) | TGI (SK-OV-3 ovarian) | TGI (MCF7 breast) | TGI (NCI-H23 lung) | TGI (SNB-19 CNS) | TGI (HCT-116 colon) | TGI (OVCAR-3 ovarian) | TGI (HS 578T breast) | TGI (SR leukemia) | TGI (LOX IMVI melanoma) | TGI (HT29 colon) | TGI (M14 melanoma) | TGI (K-562 leukemia) | TGI (CAKI-1 renal) | TGI (U251 CNS) | TGI (OVCAR-5 ovarian) | TGI (SF-539 CNS) | TGI (BT-549 breast) | TGI (HCT-15 colon) | TGI (EKVX NSCLC) | TGI (SK-MEL-5 melanoma) | TGI (786-0 renal) | TGI (PC-3 prostate) | TGI (CCRF-CEM leukemia) | TGI (HOP-62 NSCLC) | TGI (SF-295 CNS) | TGI (NCI-H460 lung) | TGI (IGROV1 ovarian) | TGI (MDA-N) | TGI (HL-60(TB) leukemia) | TGI (SF-268 CNS) | TGI (KM12 colon)

CN(C)C1=Nc2ccccc2C(=S)N2CSCC12 (stereo not drawn)
45.1 µM: TGI (CCRF-CEM leukemia)
52 µM: TGI (COLO 205 colon)
51.8 µM: TGI (MALME-3M melanoma)
54.1 µM: TGI (MOLT-4 leukemia)
62.2 µM: TGI (786-0 renal)
> 100 µM: TGI (A549 NSCLC) | TGI (MDA-MB-435) | TGI (UACC-257 melanoma) | TGI (MDA-MB-231 breast) | TGI (T-47D breast) | TGI (SW-620 colon) | TGI (A498 renal) | TGI (UO-31 renal) | TGI (SN12C renal) | TGI (RPMI-8226 leukemia) | TGI (OVCAR-8 ovarian) | TGI (NCI/ADR-RES ovarian) | TGI (SK-MEL-2 melanoma) | TGI (OVCAR-4 ovarian) | TGI (NCI-H226 lung) | TGI (UACC-62 melanoma) | TGI (SK-MEL-28 melanoma) | TGI (DU-145 prostate) | TGI (ACHN renal) | TGI (RXF 393 renal) | TGI (SK-OV-3 ovarian) | TGI (MCF7 breast) | TGI (SNB-19 CNS) | TGI (HCT-116 colon) | TGI (OVCAR-3 ovarian) | TGI (HS 578T breast) | TGI (LOX IMVI melanoma) | TGI (HCC-2998 colon) | TGI (SNB-75 CNS) | TGI (HT29 colon) | TGI (M14 melanoma) | TGI (K-562 leukemia) | TGI (U251 CNS) | TGI (OVCAR-5 ovarian) | TGI (BT-549 breast) | TGI (HCT-15 colon) | TGI (EKVX NSCLC) | TGI (SK-MEL-5 melanoma) | TGI (PC-3 prostate) | TGI (TK-10 renal) | TGI (HOP-62 NSCLC) | TGI (SF-295 CNS) | TGI (NCI-H460 lung) | TGI (MDA-N) | TGI (SF-268 CNS) | TGI (KM12 colon)
45 µM: TGI (CAKI-1 renal)
48 µM: TGI (SR leukemia)
52.3 µM: TGI (IGROV1 ovarian)
29 µM: TGI (NCI-H522 lung)
